PubChem BioAssay AID1918991 (Molecular Pharmacology Branch, DTP, NCI, 2023)
Where “and” joins values, the source holds several entries; their conditions need not be identical. Equal values may be shown once.

Tested on: 186277-243-T-J2-PDC complex spheroid growth
Test: Anticancer human tumor 186277-243-T-J2-PDC patient-derived colon adenocarcinoma cell line growth inhibition [AhR]
Conditions: for viability, T/C: stronger effect = lower value
Outline: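 Agents were dosed in half-log steps down from roughly clinical Cmax, or from 10 microM where Cmax was unknown, alone and with AhR antagonists. Read-out: percent test/control growth of tumor spheroids containing HUVEC and MSC stromal cells.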

[1] = curve of first compound, second compound 0.1 µM
[2] = curve of first compound, second compound 0.316 µM
[3] = curve of first compound, second compound 1 µM
[4] = curve of first compound, second compound 3.16 µM
[5] = curve of first compound, second compound 10 µM
[6] = second compound 0.1 µM, first compound 0.0316 µM
[7] = second compound 0.1 µM, first compound 0.1 µM
[8] = second compound 0.1 µM, first compound 0.316 µM
[9] = second compound 0.1 µM, first compound 1 µM
[10] = second compound 0.1 µM, first compound 3.16 µM
[11] = second compound 0.1 µM, first compound 10 µM
[12] = second compound 0.316 µM, first compound 0.0316 µM
[13] = second compound 0.316 µM, first compound 0.1 µM
[14] = second compound 0.316 µM, first compound 0.316 µM
[15] = second compound 0.316 µM, first compound 1 µM
[16] = second compound 0.316 µM, first compound 3.16 µM
[17] = second compound 0.316 µM, first compound 10 µM
[18] = second compound 1 µM, first compound 0.0316 µM
[19] = second compound 1 µM, first compound 0.1 µM
[20] = second compound 1 µM, first compound 0.316 µM
[21] = second compound 1 µM, first compound 1 µM
[22] = second compound 1 µM, first compound 3.16 µM
[23] = second compound 1 µM, first compound 10 µM
[24] = second compound 3.16 µM, first compound 0.0316 µM
[25] = second compound 3.16 µM, first compound 0.1 µM
[26] = second compound 3.16 µM, first compound 0.316 µM
[27] = second compound 3.16 µM, first compound 1 µM
[28] = second compound 3.16 µM, first compound 3.16 µM
[29] = second compound 3.16 µM, first compound 10 µM
[30] = second compound 10 µM, first compound 0.0316 µM
[31] = second compound 10 µM, first compound 0.1 µM
[32] = second compound 10 µM, first compound 0.316 µM
[33] = second compound 10 µM, first compound 1 µM
[34] = second compound 10 µM, first compound 3.16 µM
[35] = second compound 10 µM, first compound 10 µM
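Also: spheroids exposed to compounds for seven days before the viability read.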
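For viability, T/C in this document: luminescent signal used as a stand-in for viable cell amount; 100% = DMSO vehicle control wells.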

| SMILES | IC50 [1] | IC50 [2] | IC50 [3] | IC50 [4] | IC50 [5] | viability, T/C [6] | viability, T/C [7] | viability, T/C [8] | viability, T/C [9] | viability, T/C [10] | viability, T/C [11] | viability, T/C [12] | viability, T/C [13] | viability, T/C [14] | viability, T/C [15] | viability, T/C [16] | viability, T/C [17] | viability, T/C [18] | viability, T/C [19] | viability, T/C [20] | further results |
| --- | --- | --- | --- | --- | --- | --- | --- | --- | --- | --- | --- | --- | --- | --- | --- | --- | --- | --- | --- | --- | --- |
| Nc1ccn(C2OC(CO)C(O)C2(F)F)c(=O)n1 (configuration not stated) + CC(CO)NC(=O)c1cc(-c2ccc(Cl)cc2)nn(-c2cnn(C)c2)c1=O | < 0.0316 µM | < 0.0316 µM | < 0.0316 µM | < 0.0316 µM | < 0.0316 µM | 5.01% | 4.63% | 4.51% | 3.71% | 4.16% | 4.38% | 4.41% | 4.36% | 4.44% | 4.03% | 4.3% | 4.3% | 5.04% | 4.97% | 4.99% | viability, T/C [21]: 4.1%; viability, T/C [22]: 5.44%; viability, T/C [23]: 4.54%; viability, T/C [24]: 5.3%; viability, T/C [25]: 4.96%; viability, T/C [26]: 5.78%; viability, T/C [27]: 5.41%; viability, T/C [28]: 5.04%; viability, T/C [29]: 4.36%; viability, T/C [30]: 5.62%; viability, T/C [31]: 5.79%; viability, T/C [32]: 5.42%; viability, T/C [33]: 5.48%; viability, T/C [34]: 5.6%; viability, T/C [35]: 4.96% |
| CC(C)c1c(-c2ccccc2)nc2c(C#N)c[nH]n2c1=O + Cc1ccccc1N=Nc1ccc(NC(=O)c2ccnn2C)c(C)c1 | > 10 µM | > 10 µM | > 10 µM | > 10 µM | > 10 µM | 97.4% | 110% | 104% | 105% | 109% | 97.5% | 103% | 104% | 103% | 98% | 112% | 98% | 98.9% | 106% | 115% | viability, T/C [21]: 96.4%; viability, T/C [22]: 98.3%; viability, T/C [23]: 104%; viability, T/C [24]: 95.2%; viability, T/C [25]: 108%; viability, T/C [26]: 94.3%; viability, T/C [27]: 99.7%; viability, T/C [28]: 99.7%; viability, T/C [29]: 98.7%; viability, T/C [30]: 102%; viability, T/C [31]: 97.2%; viability, T/C [32]: 92.6%; viability, T/C [33]: 101%; viability, T/C [34]: 85.8%; viability, T/C [35]: 90.1% |
| Cn1ncnc1C1c2n[nH]c(=O)c3cc(F)cc(c23)NC1c1ccc(F)cc1 (configuration not stated) | – | – | – | – | – | – | – | – | – | – | – | – | – | – | – | – | – | – | – | – | viability, T/C (compound 0.000316 µM): 102% and 97.2% and 113%; viability, T/C (compound 0.001 µM): 97.8% and 111% and 108%; viability, T/C (compound 0.00316 µM): 91.4% and 107% and 93.2%; viability, T/C (compound 0.01 µM): 103% and 107% and 102%; viability, T/C (compound 0.0316 µM): 99.6% and 119% and 78.8%; viability, T/C (compound 0.1 µM): 110% and 114% and 69%; IC50 (curve of compound): > 0.1 µM |
| O=C(c1cc(Cc2n[nH]c(=O)c3ccccc23)ccc1F)N1CCN(C(=O)C2CC2)CC1 + Cc1cncc(-c2nc(NCCc3c[nH]c4ccccc34)c3ncn(C(C)C)c3n2)c1 | > 10 µM | > 10 µM | > 10 µM | > 10 µM | < 0.0316 µM | 107% | 110% | 88.1% | 110% | 123% | 123% | 108% | 103% | 96.5% | 110% | 125% | 130% | 97.6% | 96.5% | 100% | viability, T/C [21]: 115%; viability, T/C [22]: 125%; viability, T/C [23]: 134%; viability, T/C [24]: 115%; viability, T/C [25]: 110%; viability, T/C [26]: 115%; viability, T/C [27]: 116%; viability, T/C [28]: 146%; viability, T/C [29]: 130%; viability, T/C [30]: 48.2%; viability, T/C [31]: 44.3%; viability, T/C [32]: 38.8%; viability, T/C [33]: 41.5%; viability, T/C [34]: 28.5%; viability, T/C [35]: 21.5% |
